Data from patent US4232148A, “6-Deoxyneamines” (The Upjohn Company, priority 1979, dated 1980).
Converted amounts (≈) assume the structure as drawn. Where two headings read alike, the source gives them in different places.

Columns and labels:
Assay type in all cases: cell-based
S. schottmeulleri UC 126 = assay: standard disc plate assay, zone of inhibition; settings: 12.5 mm paper discs, read-out: Zones of Inhibition; for zone of inhibition at 1000 µg/mL: 1 mg/ml
Description: (§1) The compounds of formulas (V, VII, IX, XI, XIV, XVI, and XIX) are active as antibacterials and can be used in various environments to erradicate or control susceptible microorganisms. Tables I and II set forth the in vitro antibacterial test results for representative compounds of the present invention. The results were obtained with a standard disc plate assay using 12.5 mm paper discs.

S. lutea UC 130 = assay: standard disc plate assay, zone of inhibition; settings: Micrococcus luteus, UC130, read-out: Zones of Inhibition
Description: as §1

B. cereus UC 3145 = assay: standard disc plate assay, zone of inhibition; settings: Bacillus cereus, UC3145, read-out: Zones of Inhibition, 1 mg/ml; 12.5 mm paper discs
Description: as §1

E. coli UC 51 = assay: standard disc plate assay, zone of inhibition; settings: Escherichia coli, 12.5 mm paper discs
Description: as §1

S. flexneri UC 143 = assay: standard microplate test in BHI Agar, MIC; settings: Shigella flexneri, UC143, 37°, 20 hours
Protocol: (§2) The compounds VII, XI, XVβ, XVα and XVI were tested in a standard microplate test in BHI (Brain Heart Infusion) Agar at a concentration of 1 mg./ml. and dilutions thereof at 37° incubation temperature. The end points are read at 20 hours. BHI Agar is supplied by Difco Laboratories, Detroit, Mich., U.S.A. and has the following compositions:
(§3) Calf brains, infusion from: 200 gm.
(§4) Beef heart, infusion from: 250 gm.
(§5) Bacto Proteose-peptone, Difco: 10 gm.
(§6) Bacto-Dextrose, Difco: 1 gm.
(§7) Disodium phosphate: 2.5 gm.

S. faecalis UC 694 = assay: standard microplate test in BHI Agar, MIC; settings: Enterococcus faecalis
Protocol: as §2, §3, §4, §5, §6, §7

K. pneumoniae UC 58 = assay: standard microplate test in BHI Agar, MIC; settings: Klebsiella pneumoniae, UC58, 20 h
Protocol: as §2, §3, §4, §5, §6, §7

S. typhi UC 215 = assay: standard microplate test in BHI Agar, MIC; settings: Salmonella enterica, 20 h, read-out: Minimal Inhibitory Concentration
Protocol: as §2, §3, §4, §5, §6, §7

S. pyogenes UC 152 = assay: standard microplate test in BHI Agar, MIC; settings: Streptococcus pyogenes, UC152, 20 h
Protocol: as §2, §3, §4, §5, §6, §7

S. schottmuelleri UC 126 = assay: standard microplate test in BHI Agar, MIC; settings: 37°, 20 hours
Protocol: as §2, §3, §4, §5, §6, §7

S. aureus UC 76 = assay: standard microplate test in BHI Agar, MIC; settings: Staphylococcus aureus, UC76, 20 h, read-out: Minimal Inhibitory Concentration
Protocol: as §2, §3, §4, §5, §6, §7

D. pneumoniae UC 41 = assay: standard microplate test in BHI Agar, MIC; settings: Streptococcus pneumoniae, UC41, 37°, 20 hours, read-out: Minimal Inhibitory Concentration
Protocol: as §2, §3, §4, §5, §6, §7

P. morganii UC 3186 = assay: standard microplate test in BHI Agar, MIC; settings: Morganella morganii, UC3186, 20 h
Protocol: as §2, §3, §4, §5, §6, §7

S. pneumoniae I UC 41 = assay: standard microplate test in BHI Agar, MIC; settings: Streptococcus pneumoniae, UC41, 37°, 20 hours, read-out: Minimum Inhibitory Concentration
Protocol: as §2, §3, §4, §5, §6, §7

P. vulgaris UC 93 = assay: standard microplate test in BHI Agar, MIC; settings: Proteus vulgaris, UC93, 37°, 20 hours
Protocol: as §2, §3, §4, §5, §6, §7

S. marcescens UC 131 = assay: standard microplate test in BHI Agar, MIC; settings: Serratia marcescens, UC131, 37°, 20 hours
Protocol: as §2, §3, §4, §5, §6, §7

E. coli UC 45 = assay: standard microplate test in BHI Agar, MIC; settings: Escherichia coli, UC45, 37°, 20 hours, read-out: Minimum Inhibitory Concentration
Protocol: as §2, §3, §4, §5, §6, §7

P. mirabilis UC 6671 = assay: standard microplate test in BHI Agar, MIC; settings: Proteus mirabilis, UC6671, 37°, 20 hours
Protocol: as §2, §3, §4, §5, §6, §7

S. aureus UC 80 = assay: standard disc plate assay, zone of inhibition; settings: Staphylococcus aureus, UC80, read-out: Zones of Inhibition, 1 mg/ml; 12.5 mm paper discs
Description: as §1

E. coli UC 311 = assay: standard microplate test in BHI Agar, MIC; settings: Escherichia coli, UC311, 20 h, read-out: Minimal Inhibitory Concentration
Protocol: as §2, §3, §4, §5, §6, §7

[1] = read-out: Minimal Inhibitory Concentration
[2] = UC694, 20 h, read-out: Minimal Inhibitory Concentration
[3] = read-out: Minimum Inhibitory Concentration

NC[C@H]1O[C@H](O[C@@H]2[C@@H](N)C[C@@H](N)C[C@H]2OC2O[C@H](CO)[C@@H](O)[C@H]2O)[C@H](N)[C@@H](O)[C@@H]1O (single isomer, unassigned) [Compound XVα, O-2,6-Diamino-2,6-dideoxy-α-D-glucopyranosyl (1→4)-O-[α-D-ribofuranosyl(1→5)]-2,6-dideoxy-D-streptamine]
zone of inhibition at 1000 µg/mL (S. schottmeulleri UC 126): 20 mm | zone of inhibition at 1000 µg/mL (S. lutea UC 130): 16 mm | zone of inhibition at 1000 µg/mL (B. cereus UC 3145): 20 mm | zone of inhibition at 1000 µg/mL (E. coli UC 51; UC51, read-out: Zones of Inhibition, 1 mg/ml): 24 mm | MIC (S. flexneri UC 143; [1]): 500 µg/mL (≈ 1140 µM) | MIC (S. faecalis UC 694; [2]): > 500 µg/mL | MIC (K. pneumoniae UC 58; [1]): 15.6 µg/mL (≈ 35.6 µM) | MIC (S. typhi UC 215): 62.5 µg/mL (≈ 143 µM) | MIC (S. pyogenes UC 152; [1]): 31.2 µg/mL (≈ 71.2 µM) | MIC (S. schottmuelleri UC 126; [1]): 125 µg/mL (≈ 285 µM) | MIC (S. aureus UC 76): 125 µg/mL (≈ 285 µM) | MIC (D. pneumoniae UC 41): 125 µg/mL (≈ 285 µM) | MIC (P. morganii UC 3186; [1]): 125 µg/mL (≈ 285 µM)

C[C@@]1(O)C[C@H](N)C[C@H](N)[C@H]1O[C@H]1O[C@H](CN)[C@@H](O)[C@H](O)[C@H]1N [6-Deoxy-5-methylneamine, 6-Deoxy-5-methyl-neamine]
zone of inhibition at 1000 µg/mL (S. schottmeulleri UC 126): 21 mm | MIC (S. flexneri UC 143; [3]): 125 µg/mL (≈ 390 µM) | MIC (S. faecalis UC 694; UC694, 20 h, read-out: Minimum Inhibitory Concentration): > 500 µg/mL | MIC (S. pneumoniae I UC 41): 62.5 µg/mL (≈ 195 µM) | MIC (P. vulgaris UC 93; [3]): 62.5 µg/mL (≈ 195 µM) | MIC (S. marcescens UC 131; [3]): 125 µg/mL (≈ 390 µM) | MIC (K. pneumoniae UC 58; [3]): 15.6 µg/mL (≈ 48.7 µM) | MIC (S. pyogenes UC 152; [3]): 7.8 µg/mL (≈ 24.3 µM) | MIC (S. schottmuelleri UC 126; [3]): 62.5 µg/mL (≈ 195 µM) | MIC (E. coli UC 45): 125 µg/mL (≈ 390 µM) | MIC (P. mirabilis UC 6671; [3]): 250 µg/mL (≈ 780 µM) | MIC (P. morganii UC 3186; [3]): 125 µg/mL (≈ 390 µM)

NC[C@H]1O[C@H](O[C@@H]2[C@@H](N)C[C@@H](N)C[C@H]2O[C@@H]2C[C@@H](N)[C@H](O)[C@@H](CO)O2)[C@H](N)[C@@H](O)[C@@H]1O [Compound XVI, O-2,6-Diamino-2,6-dideoxy-α-D-glucopyranosyl (1→4)-O-[3-amino-2,3-dideoxy-α-D-arabinohexopyranosyl(1→5)-2,6-dideoxy-D-streptamine]]
zone of inhibition at 1000 µg/mL (S. schottmeulleri UC 126): 15 mm | zone of inhibition at 1000 µg/mL (S. aureus UC 80): 21 mm | MIC (S. flexneri UC 143; [1]): > 500 µg/mL | MIC (S. faecalis UC 694; [2]): > 500 µg/mL | MIC (S. schottmuelleri UC 126; [1]): > 500 µg/mL

NC[C@H]1O[C@H](O[C@H]2[C@H](O)C[C@H](N)C[C@@H]2N)[C@H](N)[C@@H](O)[C@@H]1O [6-deoxyneamine, 6-Deoxyneamine]
MIC (S. flexneri UC 143; [3]): 62.5 µg/mL (≈ 204 µM) | MIC (S. pneumoniae I UC 41): 62.5 µg/mL (≈ 204 µM) | MIC (P. vulgaris UC 93; [3]): 31.2 µg/mL (≈ 102 µM) | MIC (S. schottmuelleri UC 126; [3]): 31.2 µg/mL (≈ 102 µM) | MIC (E. coli UC 45): 31.2 µg/mL (≈ 102 µM) | MIC (P. mirabilis UC 6671; [3]): 62.5 µg/mL (≈ 204 µM) | MIC (P. morganii UC 3186; [3]): 62.5 µg/mL (≈ 204 µM)

NC[C@H]1O[C@H](O[C@@H]2[C@@H](N)C[C@@H](N)C[C@H]2OC2O[C@H](CO)[C@@H](O)[C@H]2O)[C@H](N)[C@@H](O)[C@@H]1O (single isomer, unassigned) [Compound XVβ, O-2,6-Diamino-2,6-dideoxy-α-D-glucopyranosyl (1→4)-O-[β-D-ribofuranosyl(1→5)]-2,6-dideoxy-D-streptamine]
zone of inhibition at 100 µg/mL (S. schottmeulleri UC 126; 0.1 mg/ml): 16 mm | zone of inhibition at 1000 µg/mL (S. schottmeulleri UC 126): 24 mm | zone of inhibition at 100 µg/mL (E. coli UC 51; UC51, 0.1 mg/ml, read-out: Zones of Inhibition): 20 mm | MIC (S. flexneri UC 143; [1]): 31.2 µg/mL (≈ 71.2 µM) | MIC (S. faecalis UC 694; UC694, BHI Agar, 37°, 20 hours, read-out: Minimal Inhibitory Concentration): 500 µg/mL (≈ 1140 µM) | MIC (E. coli UC 311): 31.2 µg/mL (≈ 71.2 µM) | MIC (P. vulgaris UC 93; [1]): 31.2 µg/mL (≈ 71.2 µM) | MIC (S. marcescens UC 131; [1]): 62.5 µg/mL (≈ 143 µM) | MIC (S. schottmuelleri UC 126; [1]): 7.8 µg/mL (≈ 17.8 µM) | MIC (S. aureus UC 76): 31.2 µg/mL (≈ 71.2 µM) | MIC (P. mirabilis UC 6671; [1]): 125 µg/mL (≈ 285 µM) | MIC (D. pneumoniae UC 41): 15.6 µg/mL (≈ 35.6 µM)

NC[C@H]1O[C@H](O[C@@H]2[C@@H](N)C[C@@H](N)C[C@@H]2O)[C@H](N)[C@@H](O)[C@@H]1O [6-Deoxy-5-epineamine]
zone of inhibition at 1000 µg/mL (S. schottmeulleri UC 126): 21 mm
